Measured values as given in patent US20070060548A1, “Modulation of Epac, phospholipase Cepsilon, and phospholipase D to treat pain” (The Regents of the University of California, priority 2005, published 2007).
“And” between values parts separate entries of the source, which are not always exact repeats. Equal values may be shown once. “Also recorded” adds a separate entry of the source. Read-outs that look alike come from different tables or passages of the source.

Assays:
[1] = test system: PKCε translocation in cultured DRG neurons; assay: PKCε translocation to the plasma membrane in cultured DRG neurons (immunocytochemistry, 50 cells per culture counted); assay type: cell-based, rat; settings: for PKCε translocating cells after inhibitor pretreatment and CPTOMe stimulation: 15 min pretreatment (U73122/U73343 10 μM, 1-/2-butanol 50 mM), then CPTOMe 10 μM 90 s
Protocol: Cultures of dissociated dorsal root ganglia were prepared from male Sprague-Dawley rats (200-300 g, Charles River, Hollister, Calif., USA), adapting a previously described protocol (Khasar et al., 1999b). Rats were anesthetized with an overdose of Nembutal (50 mg per animal, s.c.). L1-L6 DRGs were removed, desheathed, pooled, incubated with collagenase (final concentration (f.c.) 0.125%, 1 h, 37° C.) followed by a trypsin digest (f.c. 0.25%, 7 min, 37° C.). Cells were separated by trituration with a fire polished Pasteur pipette. Axon stumps and dead cells were removed by straining (40 μm mesh), followed by centrifugation (3 min, 500 g). Cells were resuspended in 12 ml Neurobasal A/B27-media and plated 0.5 ml (=0.5 DRG equivalents) per culture onto polyornithine/laminin precoated glass cover slips (12 mm diameter) and incubated over night in 24-well plates at 37° C. in 5% CO2. Variability between batches of NeurobasalA media and its B27 supplement resulting in varying translocation of PKCε after stimulation was counteracted by the addition of up to […] ethanol (according to technical support of Invitrogen, less than 2.5% of the ethanol concentration already in the medium).
After a 15-20 h incubation, to allow cells to adhere to coverslips, the cells were stimulated. To ensure homogeneous dispersion of the stimulants, 250 μl of the 500 μl medium was removed, mixed thoroughly with the respective activator/inhibitor and added back to the same culture. […] Activators were added for the indicated time in concentrations based on literature reports. For all agonists time courses were established (some data not shown). Negative controls (unstimulated cells) were treated alike only without the addition of any pharmaceutical reagent. While the physiological stimulus epinephrine was used for the in vivo experiments, the β-AR agonist isoproterenol was used in vitro for identification of the β-AR subtype. After treatment the cells were washed once with phosphate buffered saline (PBS) and fixed with para-formaldehyde (PFA) (4%, 10 min, room temperature (RT)).
PFA-fixed cells were permeabilized with 0.1% Triton X-100 (10 min, RT), followed by three washes with 0.1% bovine serum albumin (BSA)/PBS (5 min, RT). After blockage of unspecific binding sites (5% BSA/10% normal goat serum/PBS, 1 h, RT) the cultures were probed with the respective primary antibody in 1% BSA/PBS (over night, 4° C.), washed three times (1% BSA/PBS, 5 min, RT) and incubated with the secondary fluorophore-coupled antiserum (final concentration (f.c.) 1:200, 1 h, RT). After three final washes (PBS, 5 min, RT), the cultures were mounted with Vectashield onto microscope slides and sealed with nail polish.
Cells were evaluated with a Nikon Microphot FXA microscope, using a 50× oil objective. 50 randomly selected cells per culture were evaluated. Data are plotted as mean percentage of translocating cells per evaluated culture±standard error of means (SEM) based on the number of evaluated cultures. All counting was done in blind fashion by the same observer. All treatments have been repeated with DRG-neurons from different rats, on at least 2 separate days. Confocal images were taken with a 100× oil immersion objective using a Zeiss Axiovert 100 microscope (Carl Zeiss Inc.) attached to a MRC 1000 confocal microscope (Bio-Rad). Epifluorescent images were taken with a 63× oil immersion objective using a Zeiss Axiovert 100 microscope.

[2] = test system: Sprague-Dawley rats; assay: Mechanical nociceptive threshold, Randall-Selitto paw pressure test after intradermal injection; assay type: in vivo, rat; settings: for change of baseline mechanical sensitivity (paw-withdrawal threshold): inhibitor alone, without stimulation (U73122/U73343 2.5 μl 1 μg/μl, 1-/2-butanol 2.5 μl); for CPTOMe-induced hyperalgesia after inhibitor preinjection: inhibitor preinjected 30 min before CPTOMe, positive = hyperalgesia; for effect on epinephrine-induced mechanical hyperalgesia: preinjection 30 min before epinephrine (also stated for CPTOMe); for reduction of paw-withdrawal threshold: agent alone, intradermal (epinephrine 0.1 μg, CPTOMe 6.3 μg in 2.5 μl), measured 30 min after injection
Protocol: Behavioral experiments were performed on male Sprague-Dawley rats (200-300 g, Charles River, Hollister, Calif., USA). Animals were housed in a controlled environment in the Animal Care Facility of the University of California, San Francisco, under a 12 h light/dark cycle. Food and water were available ad libitum. Care and use of animals conformed to NIH guidelines. The UCSF Committee on Animal Research approved experimental protocols. All efforts were made to minimize the number of animals used. The nociceptive flexion reflex was quantified using the Randall-Selitto paw pressure device (Analgesymeter®, Stoetling), which applies a linearly increasing mechanical force to the dorsum of the rat's hind paw. The nociceptive mechanical threshold was defined as the force in grams at which the rat withdrew its paw. The protocols for this procedure have been previously described (Taiwo and Levine, 1989; Dina et al., 2003). Baseline paw-withdrawal threshold was defined as the mean of six readings before test agents were injected. Each paw was treated as an independent measure and each experiment was performed on a separate group of rats. Each group of rats was treated with only one agonist and/or antagonist injected peripherally by the intradermal route. Measurement of nociceptive threshold was taken 30 min after the administration of the hyperalgesic mediator. All behavioral testing was done between 10.00 and 16.00 h. The blocking agents were injected as described previously ([…] et al., 1995; […] et al., 1999a). […] […] et al., 1999a).

[3] = 15 min pretreatment (ICI 118,551 50 μM, D-609 30 μM, U73122/U73343 10 μM, 1-/2-butanol 50 mM, BIM 100 nM), then isoproterenol 1 μM 30 s
[4] = activator alone, 30 s stimulation (isoproterenol 1 μM, cholera toxin 1 μg/ml, forskolin 5 μM, CPTOMe 10 μM), mean±SEM

## CCCCO [1-butanol]
[1]; [3]
  PKCε translocating cells after inhibitor pretreatment and isoproterenol stimulation: 5.5±1.1%
[1]
  PKCε translocating cells after inhibitor pretreatment and CPTOMe stimulation: 8.7±1.5%
[2]
  change of baseline mechanical sensitivity (paw-withdrawal threshold): −0.0%±1.8%
  CPTOMe-induced hyperalgesia after inhibitor preinjection: −0.5%±1.8%
  effect on epinephrine-induced mechanical hyperalgesia: inhibits completely

## CCC(C)O (stereo not shown) [2-butanol]
[1]; [3]
  PKCε translocating cells after inhibitor pretreatment and isoproterenol stimulation: 16.0±2.4%
[1]
  PKCε translocating cells after inhibitor pretreatment and CPTOMe stimulation: 21.8±2.7%
[2]
  change of baseline mechanical sensitivity (paw-withdrawal threshold): −8%±1.7%
  CPTOMe-induced hyperalgesia after inhibitor preinjection: 33.4±1.7%

## CN(C)CCCn1cc(C2=C(c3c[nH]c4ccccc34)C(=O)NC2=O)c2ccccc21 [BIM, bisindolylmaleimide I]
[1]
  PKCε translocating cells after inhibitor pretreatment and isoproterenol stimulation: 19.8±1.3%

## Cc1ncc2ccccc2c1C#N [CMIQ, 4-cyano-3-methylisoquinoline]
[1]; 15 min preincubation, up to 1000-fold IC50 (0.03-30 μM), then isoproterenol 1 μM 30 s
  effect on isoproterenol-induced PKCε translocation: still translocated to the plasma membrane, as in control conditions
[2]; CMIQ alone 2.5 μg/2.5 μl intradermally
  effect on mechanical paw-withdrawal threshold: did not change
[2]; CMIQ preinjected 15 min before PKAcs
  effect on PKA catalytic subunit-induced hyperalgesia: completely abrogated; also recorded: completely blocked

## CO[C@@H]1[C@@H]2OP(=O)(O)OC[C@H]2O[C@H]1n1c(Sc2ccc(Cl)cc2)nc2c(N)ncnc21 [CPTOMe, 8-CPT-2′-O-Me-cAMP]
[1]
  PKCε translocating cells: 20.3±2.6% and 23.5±3.7%
[1]; activator alone, time course
  time of maximal PKCε translocation: 90 s
[2]; CPTOMe alone, comparator of the inhibitor experiment
  CPTOMe-induced hyperalgesia: 31.7%±0.8%
[2]
  reduction of paw-withdrawal threshold: 34.6±1.6%

## S=C([S-])OC1CC2CC1C1CCCC21.[K+] [D-609]
[1]; [3]
  PKCε translocating cells after inhibitor pretreatment and isoproterenol stimulation: 20.8±2.9%

## Cc1ccc(OCC(O)C(C)NC(C)C)c2c1CCC2 (stereo not shown) [ICI 118,551]
[1]; [3]
  PKCε translocating cells after inhibitor pretreatment and isoproterenol stimulation: 3.0%±1.1%

## COc1ccc2c(c1)CC[C@@H]1[C@@H]2CC[C@]2(C)[C@@H](NCCCCCCN3C(=O)C=CC3=O)CC[C@@H]12 [U73122]
[1]; [3]
  PKCε translocating cells after inhibitor pretreatment and isoproterenol stimulation: 0.3±0.3%
[1]
  PKCε translocating cells after inhibitor pretreatment and CPTOMe stimulation: 2.0±0.9%
[2]
  change of baseline mechanical sensitivity (paw-withdrawal threshold): −4.4%±1.3%
  CPTOMe-induced hyperalgesia after inhibitor preinjection: −2.5%±2.0%
  effect on epinephrine-induced mechanical hyperalgesia: completely blocked

## COc1ccc2c(c1)CC[C@@H]1[C@@H]2CC[C@]2(C)[C@@H](NCCCCCCN3C(=O)CCC3=O)CC[C@@H]12 [U73343]
[1]; [3]
  PKCε translocating cells after inhibitor pretreatment and isoproterenol stimulation: 15.3±1.9%
[1]
  PKCε translocating cells after inhibitor pretreatment and CPTOMe stimulation: 23.7±3.6%
[2]
  change of baseline mechanical sensitivity (paw-withdrawal threshold): 2.8%±1.9%
  CPTOMe-induced hyperalgesia after inhibitor preinjection: 30.9%±1.9%

## CNC[C@H](O)c1ccc(O)c(O)c1 [epinephrine]
[2]
  reduction of paw-withdrawal threshold: 37.7±1.9%

## C=C[C@@]1(C)CC(=O)[C@]2(O)[C@@]3(C)[C@@H](O)CCC(C)(C)[C@@H]3[C@H](O)[C@H](OC(C)=O)[C@@]2(C)O1 [forskolin]
[1]; [4]
  PKCε translocating cells: 22.3±4.2%

## CC(C)NC[C@H](O)c1ccc(O)c(O)c1 [isoproterenol, (−)-isoproterenol]
[1]; [4]
  PKCε translocating cells: 21.3%±2.8% and 19.0±3.0%
[1]; activator alone, time course
  time of maximal PKCε translocation: about 30 s

## cholera toxin
[1]
  PKCε translocating cells: 15.2±3.0% and 24.0±1.9%
  time of maximal PKCε translocation: 90 s
